A word on the melting point: it is the temperature, or range, at which the solid turns liquid.

A value given as a limit tells only on which side of the number the result lay.

Inhibition and melting point data for six compounds are collected here from patent publication US8410026B2, “Pyridazine fungicides” (Syngenta Crop Protection LLC, priority 2008, dated 2013).

Data set [1] deals with Pyrenophora teres (Helminthosporium teres). In words: Pyrenophora teres (Helminthosporium teres) / barley / preventive (action against net blotch on barley). It is filed as in vivo. The following applies: preventive spray, barley plants cv. Regina, inoculated 2 days after application, assessed after 4 days incubation, read-out: inhibit fungal infestation. The protocol: Pyrenophora teres (Helminthosporium teres)/Barley/Preventive (Action Against Net Blotch on Barley) 1-week-old barley plants cv. Regina are treated with the formulated test compound in a spray chamber. Two days after application barley plants are inoculated by spraying a spore suspension (2.6×10^4 conidia/ml) on the test plants. After an incubation period of 4 days at 20° C. and 95% r. h. the disease incidence is assessed.

For data set [2], the system named is Alternaria solani. Put plainly: Alternaria solani / tomato / preventive (action against Alternaria on tomato). Type of data set: in vivo. The following applies: preventive spray, tomato plants cv. Roter Gnom, inoculated 2 days after application, assessed after 4 days incubation, read-out: inhibit fungal infestation. The protocol: Alternaria solani/Tomato/Preventive (Action Against Alternaria on Tomato) 4 weeks old tomato plants cv. Roter Gnom are treated with the formulated test compound in a spray chamber. Two days after application tomato plants are inoculated by spraying a spore suspension on the test plants. After an incubation period of 4 days at 22° C./18° C. and 95% r. h. in a greenhouse the disease incidence is assessed.

In data set [3] the test system is Botryotinia fuckeliana (Botrytis cinerea). In words: Botryotinia fuckeliana (Botrytis cinerea) / tomato / preventive (action against Botrytis on tomato). The following applies: preventive spray, tomato plants cv. Roter Gnom, inoculated 2 days after application, assessed after 3 days incubation, read-out: inhibit fungal infestation. Type of data set: in vivo. The protocol: Botryotinia fuckeliana (Botrytis cinerea)/Tomato/Preventive (Action Against Botrytis on Tomato) 4 weeks old tomato plants cv. Roter Gnom are treated with the formulated test compound in a spray chamber. Two days after application tomato plants are inoculated by spraying a spore suspension on the test plants. After an incubation period of 3 days at 20° C. and 95% r. h. in a greenhouse the disease incidence is assessed.

Data set [4] has as its system Mycosphaerella graminicola (Septoria tritici). Put plainly: Mycosphaerella graminicola (Septoria tritici) / wheat / preventive (action against Septoria leaf spot on wheat). It is filed as in vivo. The following applies: Zymoseptoria tritici, preventive spray, wheat plants cv. Riband, inoculated 1 day after application, assessed 16-18 days after inoculation, read-out: inhibits fungal infestation. The protocol:
Mycosphaerella graminicola (Septoria tritici)/Wheat/Preventive (Action Against Septoria Leaf Spot on Wheat) 2 weeks old wheat plants cv. Riband are treated with the formulated test compound in a spray chamber. One day after application wheat plants are inoculated by spraying a spore suspension (10^6 conidia/ml) on the test plants. After an incubation period of 1 day at 22° C./21° C. and 95% r. h. plants are kept at 22° C./21° C. and 70% r.h. in a greenhouse. The disease incidence is assessed 16-18 days after inoculation.

Data set [5] relates to Magnaporthe qrisea (Pyricularia oryzae). Put plainly: whole plant or invertebrate. It is filed as in vivo. The following applies: read-out: inhibit fungal infestation.
Data set [6] deals with Puccinia recondite f. sp. tritici. In words: Puccinia recondite f. sp. tritici / wheat / preventive (action against brown rust on wheat). Type of data set: in vivo. The following applies: preventive spray, wheat plants cv. Arina, inoculated 1 day after application, assessed 11 days after inoculation, read-out: inhibit fungal infestation. The protocol: Puccinia recondite f. sp. tritici/Wheat/Preventive (Action Against Brown Rust on Wheat) 1 week old wheat plants cv. Arina are treated with the formulated test compound in a spray chamber. One day after application wheat plants are inoculated by spraying a spore suspension (1×105 uredospores/ml) on the test plants. After an incubation period of 1 day at 20° C. and 95% r. h. plants are kept for 10 days 20° C./18° C. (day/night) and 60% r. h. in a greenhouse. The disease incidence is assessed 11 days after inoculation.

Data set [7] deals with Uncinula necator (Erysiphe necator). In words: Uncinula necator (Erysiphe necator) / grape / preventive (action against powdery mildew on grape). Type of data set: in vivo. Particulars: preventive spray, grape seedlings cv. Gutedel, inoculated 1 day after application, assessed after 7 days incubation, read-out: inhibit fungal infestation. The protocol: Uncinula necator (Erysiphe necator)/Grape/Preventive (Action Against Powdery Mildew on Grape) 5 weeks old grape seedlings cv. Gutedel are treated with the formulated test compound in a spray chamber. One day after application grape plants are inoculated by shaking plants infected with grape powdery mildew above the test plants. After an incubation period of 7 days at 24° C./22° C. and 70% r. h. under a light regime of 14/10 h (light/dark) the disease incidence is assessed.

As to `Cc1nnc(Cl)c(-c2c(F)cccc2Cl)c1-c1ccc(Cl)nc1` [I.a.02, 3-chloro-4-(2-chloro-6-fluoro-phenyl)-5-(6-chloro-pyridin-3-yl)-6-methyl-pyridazine], the inhibition at 200 ppm in data set [1], in data set [2], in data set [3], in data set [4], in data set [5] and in data set [6] was ≥ 80% throughout. The inhibition at 200 ppm in data set [7] was ≥ 80%.
Compound `COc1nnc(C)c(-c2ccc(Cl)nc2)c1-c1c(F)cc(F)cc1F` [I.a.12, 4-(6-chloro-pyridin-3-yl)-6-methoxy-3-methyl-5-(2,4,6-trifluoro-phenyl)-pyridazine] returned a melting point of 123 to 124 °C. In addition, the inhibition at 200 ppm in data set [1] was ≥ 80%. Further, the inhibition at 200 ppm in data set [2] was ≥ 80%. Further, the inhibition at 200 ppm in data set [3] was ≥ 80%. In addition, the inhibition at 200 ppm in data set [6] was ≥ 80%. Moreover, the inhibition at 200 ppm in data set [7] was ≥ 80%.
In the case of `CCc1nnc(Cl)c(-c2c(F)cc(F)cc2F)c1-c1ccc(Cl)nc1` [I.a.14, 3-chloro-5-(6-chloro-pyridin-3-yl)-6-ethyl-4-(2,4,6-trifluoro-phenyl)-pyridazine], the melting point was in the range of 125 to 126 °C. In addition, the inhibition at 200 ppm in data set [1] was ≥ 80%. Moreover, the inhibition at 200 ppm in data set [2] was ≥ 80%. In addition, in data set [4], the inhibition at 200 ppm was ≥ 80%. Further, the inhibition at 200 ppm in data set [5] is ≥ 80%. Moreover, the inhibition at 200 ppm in data set [6] was ≥ 80%. Moreover, in data set [7], the inhibition at 200 ppm is ≥ 80%.
`CC(C)c1nnc(Cl)c(-c2c(F)cc(F)cc2F)c1-c1ccc(Cl)nc1` [I.a.17, 3-chloro-5-(6-chloro-pyridin-3-yl)-6-isopropyl-4-(2,4,6-trifluoro-phenyl)-pyridazine] came in with a melting point of 146 to 149 °C.
Compound `COc1cc(F)c(-c2c(Cl)nnc(C)c2-c2ccc(Cl)nc2)c(F)c1` [I.a.20, 3-chloro-5-(6-chloro-pyridin-3-yl)-4-(2,6-difluoro-4-methoxy-phenyl)-6-methyl-pyridazine] registered a melting point of 148 to 149 °C. In data set [1], the inhibition at 200 ppm is ≥ 80%. Moreover, in data set [2], the inhibition at 200 ppm is ≥ 80%. Further, the inhibition at 200 ppm in data set [4] was ≥ 80%. Besides, the inhibition at 200 ppm in data set [5] is ≥ 80%. Further, the inhibition at 200 ppm in data set [6] is ≥ 80%.
For `Cc1nnc(Cl)c(-c2c(F)cc(F)cc2F)c1-c1cnc(Cl)c(Cl)c1` [I.g.11, 3-chloro-5-(5,6-dichloro-pyridin-3-yl)-6-methyl-4-(2,4,6-trifluoro-phenyl)-pyridazine], the melting point lay within 185 to 188 °C. The inhibition at 200 ppm in data set [5] is ≥ 80%. Further, the inhibition at 200 ppm in data set [7] is ≥ 80%.
